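Protocol summary: plate cells (96-well), add compound at 5 concentrations, incubate 48 h, interpolate endpoints linearly. At the TGI there is no net growth.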
What was measured:
Assay in all cases: growth of human tumour cells (NCI), 48 h
A549 NSCLC = system: A549 NSCLC
ACHN renal = system: ACHN renal
NCI-H522 lung = system: NCI-H522 lung
SNB-19 CNS = system: SNB-19 CNS
SK-MEL-2 melanoma = system: SK-MEL-2 melanoma
EKVX NSCLC = system: EKVX NSCLC
CAKI-1 renal = system: CAKI-1 renal
SF-295 CNS = system: SF-295 CNS
BT-549 breast = system: BT-549 breast
UACC-257 melanoma = system: UACC-257 melanoma

Structure (SMILES) | TGI (A549 NSCLC) [µM] | TGI (ACHN renal) [µM] | TGI (NCI-H522 lung) [µM] | TGI (SNB-19 CNS) [µM] | TGI (SK-MEL-2 melanoma) [µM] | TGI (EKVX NSCLC) [µM] | TGI (CAKI-1 renal) [µM] | TGI (SF-295 CNS) [µM] | TGI (BT-549 breast) [µM] | TGI (UACC-257 melanoma) [µM]
COc1ccc(C[C@H](N)C(=O)N2C[C@H](CO)C[C@H](n3ccc(=O)[nH]c3=O)C2)cc1 | > 100 | > 100 | > 100 | > 100 | > 100 | > 100 | > 100 |  |  | 
CC1(C)CN(c2ccccc2)C(=O)C1OC(=O)[C@@]1(C)C[C@@H]2C=C[C@H]1C2 (stereo not given in full) | 83.7 | > 100 |  | 65.5 | 35.4 | 59.9 | 61.5 | 46.7 | 82.5 | 42.5
[N-]=[N+]=NC1CC(n2cc(COCC(F)(F)F)c(=O)[nH]c2=O)OC1CO (stereo not given) | > 100 | > 100 | > 100 | > 100 | > 100 | > 100 | > 100 | > 100 |  | > 100
Cc1ccc(NC(=S)Nc2c(C)n(C)n(-c3ccccc3)c2=O)cc1 | > 100 | > 100 | > 100 | > 100 |  | > 100 | > 100 | > 100 | > 100 | > 100
O=C(OCCN1CCCCC1)C(c1ccccc1)C1(O)CCSCC1 (stereo not given) | > 100 | > 100 | > 100 | > 100 | > 100 | > 100 | > 100 | > 100 |  | > 100
CC(C)(C)OC(=O)NC(Cc1ccc(O)cn1)C(N)=O (stereo not given) | > 100 | > 100 | > 100 | > 100 |  | > 100 | > 100 | > 100 | > 100 | > 100
CN1C/C(=C\c2ccc(Cl)cc2)C(=O)/C(=C/c2ccc(Cl)cc2)C1 | > 100 | > 25.3 |  | > 100 | > 100 | > 90.6 | > 27.6 | 2.07 |  | 2.44
Oc1ccc2c(c1)CC[N+]1=C2CCC2CCCC21 (stereo not given) | > 100 | > 100 |  | > 100 | > 100 | > 100 | > 100 | > 100 |  | 
CCOC(=O)CCc1c(C(=O)OCC)[nH]c(/C=C2\NC(=O)C(C)=C2CC)c1C | > 100 | 41.2 | 30.7 |  | 42.5 | 50.3 | 78.7 | 41.3 |  | 
Cc1cn(CC2=NCCCN2)c(=O)[nH]c1=O | > 100 | > 100 | > 100 | > 100 | > 100 | > 100 |  | > 100 | > 100 | > 100
C[C@H](CC[C@@H](O)C(C)(C)O)[C@H]1CC[C@@]2(C)[C@@H]3CC=C4[C@@H](CC[C@H](O)C4(C)C)[C@]3(C)C(=O)C[C@]12C | > 50 | > 50 | > 50 | > 50 | > 50 | > 50 |  | > 50 | > 50 | > 50
N/N=C1/C(=N/O)CCc2nonc21 | > 100 | > 100 |  | > 100 | > 100 | > 100 | > 100 | > 100 |  | > 100

— PubChem BioAssay (NCI)
